According to paper PMC5218480 (PLoS ONE, 2017):

Test system: MV-4-11 cells
Assay: Gene expression microarray analysis (Affymetrix PrimeView) and GSEA
Type: cell-based, human
Parameters: RFU PODN (11730768_x_at) / Fold change /veh PODN (11730768_x_at) / RFU LINC00158 (11744669_a_at) / Fold change /veh LINC00158 (11744669_a_at) / RFU DUSP10 (11751237_a_at) / Fold change /veh DUSP10 (11751237_a_at) / RFU ID3 (11757404_x_at) / Fold change /veh ID3 (11757404_x_at) / RFU PLEKHG5 (11737974_s_at) / Fold change /veh PLEKHG5 (11737974_s_at) / RFU LRRC4B (11730491_at) / Fold change /veh LRRC4B (11730491_at) / RFU GIMAP4 (11747438_a_at) / Fold change /veh GIMAP4 (11747438_a_at) / RFU KRT8 (11758183_x_at) / Fold change /veh KRT8 (11758183_x_at) / RFU CNN1 (11734310_a_at) / Fold change /veh CNN1 (11734310_a_at) / RFU VPS37D (11726825_at) / Fold change /veh VPS37D (11726825_at) / RFU C10orf10 (11716522_x_at) / Fold change /veh C10orf10 (11716522_x_at) / RFU KIR2DL2 /// KIR2DL4 /// KIR2DL5A /// KIR2DL5B /// KIR2DS1 /// KIR2DS2 /// KIR2DS3 /// KIR2DS4 /// KIR3DL3 /// KIR3DL3 /// KIR3DS1 (11738374_at) / Fold change /veh KIR2DL2 /// KIR2DL4 /// KIR2DL5A /// KIR2DL5B /// KIR2DS1 /// KIR2DS2 /// KIR2DS3 /// KIR2DS4 /// KIR3DL3 /// KIR3DL3 /// KIR3DS1 (11738374_at) / RFU C1QL1 (11718748_at) / Fold change /veh C1QL1 (11718748_at) / RFU TMPRSS4 (11747572_a_at) / Fold change /veh TMPRSS4 (11747572_a_at) / RFU HAMP (11756126_x_at) / Fold change /veh HAMP (11756126_x_at) / RFU RNFT2 (11725882_a_at) / Fold change /veh RNFT2 (11725882_a_at) / RFU NR4A2 (11747474_a_at) / Fold change /veh NR4A2 (11747474_a_at) / RFU ABCC12 (11746883_a_at) / Fold change /veh ABCC12 (11746883_a_at) / RFU TMEM136 (11760407_x_at) / Fold change /veh TMEM136 (11760407_x_at) / RFU CLDN22 /// WWC2 (11732394_at) / Fold change /veh CLDN22 /// WWC2 (11732394_at) / RFU HLA-DPB1 (11760878_x_at) / Fold change /veh HLA-DPB1 (11760878_x_at) / RFU SPINT1 (11716480_a_at) / Fold change /veh SPINT1 (11716480_a_at) / RFU GAP43 (11754022_s_at) / Fold change /veh GAP43 (11754022_s_at) / RFU A4GNT (11735810_at) / Fold change /veh A4GNT (11735810_at) / RFU PRB3 (11715151_x_at) / Fold change /veh PRB3 (11715151_x_at) / RFU TUBB4B (11761932_at) / Fold change /veh TUBB4B (11761932_at) / RFU CAPN14 (11732068_a_at) / Fold change /veh CAPN14 (11732068_a_at) / RFU TMCC2 (11721928_a_at) / Fold change /veh TMCC2 (11721928_a_at) / RFU IRGQ (11745062_a_at) / Fold change /veh IRGQ (11745062_a_at) / RFU FAM174B (11720279_a_at) / Fold change /veh FAM174B (11720279_a_at) / RFU TMPRSS4 (11748680_a_at) / Fold change /veh TMPRSS4 (11748680_a_at) / RFU FAM212B (11763350_a_at) / Fold change /veh FAM212B (11763350_a_at) / RFU PLEKHG5 (11743358_a_at) / Fold change /veh PLEKHG5 (11743358_a_at) / RFU ZSCAN30 (11745921_a_at) / Fold change /veh ZSCAN30 (11745921_a_at) / RFU CMKLR1 (11741424_a_at) / Fold change /veh CMKLR1 (11741424_a_at) / RFU LOC101060620 /// MAPK8IP1 (11723275_at) / Fold change /veh LOC101060620 /// MAPK8IP1 (11723275_at) / RFU SPTSSB (11747773_x_at) / Fold change /veh SPTSSB (11747773_x_at) / RFU PRSS12 (11739890_at) / Fold change /veh PRSS12 (11739890_at) / RFU BIN1 (11741810_x_at) / Fold change /veh BIN1 (11741810_x_at) / RFU WNT11 (11732464_a_at) / Fold change /veh WNT11 (11732464_a_at) / RFU C10orf10 (11716521_a_at) / Fold change /veh C10orf10 (11716521_a_at) / RFU C5orf56 (11738089_at) / Fold change /veh C5orf56 (11738089_at) / RFU CYB561 (11721691_x_at) / Fold change /veh CYB561 (11721691_x_at) / RFU ANKRD19P (11752326_a_at) / Fold change /veh ANKRD19P (11752326_a_at) / RFU OR2T12 /// OR2T33 /// OR2T8 (11738714_s_at) / Fold change /veh OR2T12 /// OR2T33 /// OR2T8 (11738714_s_at) / RFU VCAN (11748164_a_at) / Fold change /veh VCAN (11748164_a_at) / RFU JSRP1 (11732532_at) / Fold change /veh JSRP1 (11732532_at) / RFU KRTAP10-11 (11738290_x_at) / Fold change /veh KRTAP10-11 (11738290_x_at) / RFU MYO3A (11730013_a_at) / Fold change /veh MYO3A (11730013_a_at) / RFU EBF3 (11725865_a_at) / Fold change /veh EBF3 (11725865_a_at) / RFU CAMK2N1 (11719241_x_at) / Fold change /veh CAMK2N1 (11719241_x_at) / RFU C5orf56 (11738088_a_at) / Fold change /veh C5orf56 (11738088_a_at) / RFU OLFML3 (11715873_a_at) / Fold change /veh OLFML3 (11715873_a_at) / RFU LOC100653217 /// NTM (11731650_a_at) / Fold change /veh LOC100653217 /// NTM (11731650_a_at) / RFU MAPK11 (11762145_a_at) / Fold change /veh MAPK11 (11762145_a_at) / RFU FIZ1 (11724087_x_at) / Fold change /veh FIZ1 (11724087_x_at) / RFU OASL (11726364_x_at) / Fold change /veh OASL (11726364_x_at) / RFU SOX15 (11748057_x_at) / Fold change /veh SOX15 (11748057_x_at) / RFU CD79A (11719716_a_at) / Fold change /veh CD79A (11719716_a_at) / RFU HIST1H1D (11736915_at) / Fold change /veh HIST1H1D (11736915_at) / RFU CASKIN2 (11723855_a_at) / Fold change /veh CASKIN2 (11723855_a_at) / RFU LOC730098 (11760151_x_at) / Fold change /veh LOC730098 (11760151_x_at) / RFU OR4N2 (11742367_at) / Fold change /veh OR4N2 (11742367_at) / RFU PRRT2 (11749266_a_at) / Fold change /veh PRRT2 (11749266_a_at) / RFU SNX32 (11753110_a_at) / Fold change /veh SNX32 (11753110_a_at) / RFU CDHR5 (11726645_a_at) / Fold change /veh CDHR5 (11726645_a_at) / RFU RCAN1 (11760418_a_at) / Fold change /veh RCAN1 (11760418_a_at) / RFU FAM167A (11723789_a_at) / Fold change /veh FAM167A (11723789_a_at) / RFU FAM26E (11764081_at) / Fold change /veh FAM26E (11764081_at) / RFU ISYNA1 (11749810_s_at) / Fold change /veh ISYNA1 (11749810_s_at) / RFU ACY1 (11761880_at) / Fold change /veh ACY1 (11761880_at) / RFU 11764098_at / Fold change /veh 11764098_at / RFU SAMD14 (11745864_x_at) / Fold change /veh SAMD14 (11745864_x_at) / RFU NPB (11741838_a_at) / Fold change /veh NPB (11741838_a_at) / RFU TMPRSS6 (11731388_a_at) / Fold change /veh TMPRSS6 (11731388_a_at) / RFU KRTAP10-2 (11738614_at) / Fold change /veh KRTAP10-2 (11738614_at) / RFU ARHGAP8 /// PRR5-ARHGAP8 (11727945_x_at) / Fold change /veh ARHGAP8 /// PRR5-ARHGAP8 (11727945_x_at) / RFU KRTAP5-7 /// NADSYN1 (11734609_at) / Fold change /veh KRTAP5-7 /// NADSYN1 (11734609_at) / RFU RASL12 (11751679_a_at) / Fold change /veh RASL12 (11751679_a_at) / RFU CDKN2B (11736163_a_at) / Fold change /veh CDKN2B (11736163_a_at) / RFU PRF1 (11729649_at) / Fold change /veh PRF1 (11729649_at) / RFU, ZNF638 /// ZNF638-IT1 / Fold change vs veh, ZNF638 /// ZNF638-IT1 / RFU, PANK3 / Fold change vs veh, PANK3 / RFU, SH3YL1 / Fold change vs veh, SH3YL1 / RFU, ZEB2 / Fold change vs veh, ZEB2 / RFU, NRIP1 / Fold change vs veh, NRIP1 / RFU, PTTG1IP / Fold change vs veh, PTTG1IP / RFU, CAPN2 / Fold change vs veh, CAPN2 / RFU, MED14 / Fold change vs veh, MED14 / RFU, SNORA58 / Fold change vs veh, SNORA58 / RFU, C1orf63 / Fold change vs veh, C1orf63 / RFU, LRRFIP1 / Fold change vs veh, LRRFIP1 / RFU, NDUFAF7 / Fold change vs veh, NDUFAF7 / RFU, SLC12A2 / Fold change vs veh, SLC12A2 / RFU, IBTK / Fold change vs veh, IBTK / RFU, ESF1 / Fold change vs veh, ESF1 / Fold change vs veh, TMEM50B / RFU, TAOK1 / Fold change vs veh, TAOK1 / RFU, ACBD3 / Fold change vs veh, ACBD3 / RFU, TMA16 / Fold change vs veh, TMA16 / RFU, RWDD3 / Fold change vs veh, RWDD3 / RFU, BCAT1 / Fold change vs veh, BCAT1 / RFU, EDEM3 / Fold change vs veh, EDEM3 / RFU, TMEM33 / Fold change vs veh, TMEM33 / RFU, WDR75 / Fold change vs veh, WDR75 / RFU, AHCTF1 / Fold change vs veh, AHCTF1 / RFU, TFRC / Fold change vs veh, TFRC / RFU, ZDHHC17 / Fold change vs veh, ZDHHC17 / RFU, NOM1 / Fold change vs veh, NOM1 / RFU, ARL8B / Fold change vs veh, ARL8B / RFU, ZBTB11 / Fold change vs veh, ZBTB11 / RFU, TAMM41 / Fold change vs veh, TAMM41 / RFU, KIAA1704 /// LOC100996395 / Fold change vs veh, KIAA1704 /// LOC100996395 / RFU, ING1 / Fold change vs veh, ING1 / RFU, TRMT61B / Fold change vs veh, TRMT61B / RFU, FUBP3 / Fold change vs veh, FUBP3 / RFU, TP53 / Fold change vs veh, TP53 / RFU, TNKS2 / Fold change vs veh, TNKS2 / RFU, ZFP14 / Fold change vs veh, ZFP14 / RFU, ACTR2 / Fold change vs veh, ACTR2 / RFU, PPP3R1 / Fold change vs veh, PPP3R1 / RFU, PIK3R1 / Fold change vs veh, PIK3R1 / RFU, HNRNPA1 / Fold change vs veh, HNRNPA1 / RFU, RNF170 / Fold change vs veh, RNF170 / RFU, ZNF28 / Fold change vs veh, ZNF28 / RFU, RNGTT / Fold change vs veh, RNGTT / RFU, OGT / Fold change vs veh, OGT / RFU, BRD1 / Fold change vs veh, BRD1 / RFU, MARS / Fold change vs veh, MARS / RFU, ZNF655 / Fold change vs veh, ZNF655 / RFU, FAHD1 / Fold change vs veh, FAHD1 / RFU, BDP1 / Fold change vs veh, BDP1 / RFU, LRRCC1 / Fold change vs veh, LRRCC1 / RFU, ARID1A / Fold change vs veh, ARID1A / RFU, ZNF146 / Fold change vs veh, ZNF146 / RFU, ZNF330 / Fold change vs veh, ZNF330 / RFU, GPN3 / Fold change vs veh, GPN3 / RFU, C9orf123 / Fold change vs veh, C9orf123 / RFU, N4BP2L2 / Fold change vs veh, N4BP2L2 / RFU, ARFIP1 / Fold change vs veh, ARFIP1 / RFU, FAM179B / Fold change vs veh, FAM179B / RFU, BCL10 / Fold change vs veh, BCL10 / RFU, UHRF1BP1L / Fold change vs veh, UHRF1BP1L / RFU, BET1 / Fold change vs veh, BET1 / RFU, CNOT2 / Fold change vs veh, CNOT2 / RFU, ZNF268 / Fold change vs veh, ZNF268 / Fold change vs veh, ZNF507 / RFU, DGCR2 / Fold change vs veh, DGCR2 / RFU, WDSUB1 / Fold change vs veh, WDSUB1 / Fold change vs veh, HSP90B1 /// MIR3652 / RFU, ADSS / Fold change vs veh, ADSS / RFU, GK / Fold change vs veh, GK / RFU, ZNF148 / Fold change vs veh, ZNF148 / RFU, TAF9 / Fold change vs veh, TAF9 / RFU, SLC1A5 / Fold change vs veh, SLC1A5 / RFU, SLMO2 / Fold change vs veh, SLMO2 / RFU, ABCC4 / Fold change vs veh, ABCC4 / RFU, LOC101060439 /// RAP1B / Fold change vs veh, LOC101060439 /// RAP1B / RFU, RFX7 / Fold change vs veh, RFX7 / RFU, GTPBP10 / Fold change vs veh, GTPBP10 / RFU, CNEP1R1 / Fold change vs veh, CNEP1R1 / RFU, BIVM-ERCC5 /// ERCC5 / Fold change vs veh, BIVM-ERCC5 /// ERCC5 / RFU, ILF3 / Fold change vs veh, ILF3 / RFU 11762660_at / Fold change /veh 11762660_at / RFU VCAN (11757783_s_at) / Fold change /veh VCAN (11757783_s_at) / RFU DDX43 (11728927_at) / Fold change /veh DDX43 (11728927_at) / RFU KRT8 (11758188_x_at) / Fold change /veh KRT8 (11758188_x_at) / RFU NKD1 (11759106_at) / Fold change /veh NKD1 (11759106_at) / RFU SRD5A1 (11742802_a_at) / Fold change /veh SRD5A1 (11742802_a_at) / RFU TPSAB1 /// TPSB2 (11721975_s_at) / Fold change /veh TPSAB1 /// TPSB2 (11721975_s_at) / RFU GSTM3 (11746129_a_at) / Fold change /veh GSTM3 (11746129_a_at) / RFU IL23R (11737362_x_at) / Fold change /veh IL23R (11737362_x_at) / RFU TMEM51 (11727254_a_at) / Fold change /veh TMEM51 (11727254_a_at) / RFU PIWIL2 (11732686_x_at) / Fold change /veh PIWIL2 (11732686_x_at) / RFU ORM1 (11744905_x_at) / Fold change /veh ORM1 (11744905_x_at) / RFU CCDC152 (11743942_at) / Fold change /veh CCDC152 (11743942_at) / RFU ECM1 (11717891_a_at) / Fold change /veh ECM1 (11717891_a_at) / RFU IL23R (11748794_a_at) / Fold change /veh IL23R (11748794_a_at) / RFU TNFAIP8L3 (11732012_x_at) / Fold change /veh TNFAIP8L3 (11732012_x_at) / RFU MBOAT4 (11741988_at) / Fold change /veh MBOAT4 (11741988_at) / RFU 11764193_at / Fold change /veh 11764193_at / RFU TMEM53 (11763286_at) / Fold change /veh TMEM53 (11763286_at) / RFU MAGEB2 (11727129_at) / Fold change /veh MAGEB2 (11727129_at) / RFU TMEM200A (11744735_a_at) / Fold change /veh TMEM200A (11744735_a_at) / RFU CCDC152 (11751479_a_at) / Fold change /veh CCDC152 (11751479_a_at) / RFU FAM211A (11726209_a_at) / Fold change /veh FAM211A (11726209_a_at) / RFU RGS16 (11746705_a_at) / Fold change /veh RGS16 (11746705_a_at) / RFU VCAN (11755009_s_at) / Fold change /veh VCAN (11755009_s_at) / RFU RHOB (11743442_s_at) / Fold change /veh RHOB (11743442_s_at) / RFU RGS16 (11720943_a_at) / Fold change /veh RGS16 (11720943_a_at) / RFU RGS16 (11720944_at) / Fold change /veh RGS16 (11720944_at) / RFU, VPS4B / Fold change vs veh, VPS4B / RFU, CREB1 / Fold change vs veh, CREB1 / RFU, DNAJC13 / Fold change vs veh, DNAJC13 / RFU, GNAQ / Fold change vs veh, GNAQ / RFU, CDK5R1 / Fold change vs veh, CDK5R1 / RFU, ZRANB3 / Fold change vs veh, ZRANB3 / RFU, CUL4A / Fold change vs veh, CUL4A / RFU, CCNY / Fold change vs veh, CCNY / RFU, UFL1 / Fold change vs veh, UFL1 / RFU, COG3 / Fold change vs veh, COG3 / RFU, DIAPH2 / Fold change vs veh, DIAPH2 / RFU, SKA2 / Fold change vs veh, SKA2 / RFU, AFF3 / Fold change vs veh, AFF3 / RFU, LMF1 / Fold change vs veh, LMF1 / RFU, IPO11 / Fold change vs veh, IPO11 / RFU, DFFB / Fold change vs veh, DFFB / RFU, FOXP1 / Fold change vs veh, FOXP1 / RFU, CARD8 / Fold change vs veh, CARD8 / RFU, STRN3 / Fold change vs veh, STRN3 / RFU, ADK / Fold change vs veh, ADK / RFU, RASSF2 / Fold change vs veh, RASSF2 / RFU, WIPF1 / Fold change vs veh, WIPF1 / RFU, LARP1B / Fold change vs veh, LARP1B / RFU, RASA1 / Fold change vs veh, RASA1 / RFU, RB1 / Fold change vs veh, RB1 / RFU, PPFIA1 / Fold change vs veh, PPFIA1 / RFU, MAT2A / Fold change vs veh, MAT2A / RFU, CCT5 / Fold change vs veh, CCT5 / RFU, WDR92 / Fold change vs veh, WDR92 / RFU, CUX1 / Fold change vs veh, CUX1 / RFU, TTC7A / Fold change vs veh, TTC7A / RFU, TMEM135 / Fold change vs veh, TMEM135 / RFU, DEPTOR / Fold change vs veh, DEPTOR / RFU, CPM / Fold change vs veh, CPM / RFU, DNAJB6 / Fold change vs veh, DNAJB6 / RFU, CACNA2D3 / Fold change vs veh, CACNA2D3 / RFU, DTX4 / Fold change vs veh, DTX4 / RFU, TFCP2 / Fold change vs veh, TFCP2 / RFU, GMCL1 /// GMCL1P1 / Fold change vs veh, GMCL1 /// GMCL1P1 / RFU, AEBP2 / Fold change vs veh, AEBP2 / RFU, SNHG1 /// SNORD22 /// SNORD25 /// SNORD26 /// SNORD27 /// SNORD28 /// SNORD29 /// SNORD31 / Fold change vs veh, SNHG1 /// SNORD22 /// SNORD25 /// SNORD26 /// SNORD27 /// SNORD28 /// SNORD29 /// SNORD31 / Fold change (Aza/veh), C12orf56 (ProbeSet 11735607_a_at) / Fold change (ACY-1035/veh), C12orf56 (ProbeSet 11735607_a_at) / Fold change (Aza/veh), FGFR1OP (ProbeSet 11751329_s_at) / Fold change (ACY-1035/veh), FGFR1OP (ProbeSet 11751329_s_at) / Fold change (Aza/veh), VPS36 (ProbeSet 11739960_a_at) / Fold change (ACY-1035/veh), VPS36 (ProbeSet 11739960_a_at) / RFU SYPL1 (11715823_x_at) / Fold change /veh SYPL1 (11715823_x_at) / RFU IGFBP7 (11715501_s_at) / Fold change /veh IGFBP7 (11715501_s_at) / RFU REEP3 (11722064_at) / Fold change /veh REEP3 (11722064_at) / RFU IGLL1 (11728026_x_at) / Fold change /veh IGLL1 (11728026_x_at): dose or concentration left out as unconfirmed
Details: ProbeSet 11749477_a_at; LIST B

## Nc1ccc(-c2cccs2)cc1NC(=O)c1ccc2c(c1)cc(C1CC1)n2CCN1CCOCC1 [ACY-1035]
  Fold change vs veh, EDEM3: 0.94
